Data from patent US11207312B2, “Metallo-beta-lactamase inhibitors and methods of use thereof” (priority 2017, dated 2021).

Experiments:
[1] = target: VIM-2 (Escherichia coli, UniProt Q5U7L7); assay: biochemical; conditions: CCF2-FA fluorescence assay; read-out: VIM2 IC50
[2] = system: P. aeruginosa MB9798 (efflux+, IMP-1 plasmid); conditions: for MB9798 MITC95 P. aeruginosa uM Efflux WT: efflux + (MB9798) strain, imipenem at 2 μg/mL, in the presence of a class A, C, D serine β-lactamase inhibitor closely related to relebactam; for Efflux ratio: fold difference between efflux+ (MB9798) and efflux− (MB9799) strains
In short: (§1)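 PAO1-derived isogenic pair (oprD+, inducible AmpC), efflux+ MB5919 or efflux− MB5890 parent, carrying an electroporated IMP-1 plasmid from a clinical isolate. Microbroth MIC with fixed imipenem and/or ceftazidime (usually CLSI breakpoint) plus fixed class A/C inhibitor; MBL inhibitor serially titrated, concentration restoring susceptibility recorded.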

[3] = target: NDM-1 (Klebsiella pneumoniae, UniProt C7C422); assay: biochemical; assay type: biochemical; conditions: CCF2-FA fluorescence assay, 2 hours at 25° C.
NDM-1, sequence (C7C422 whole entry, looked up, species assumed): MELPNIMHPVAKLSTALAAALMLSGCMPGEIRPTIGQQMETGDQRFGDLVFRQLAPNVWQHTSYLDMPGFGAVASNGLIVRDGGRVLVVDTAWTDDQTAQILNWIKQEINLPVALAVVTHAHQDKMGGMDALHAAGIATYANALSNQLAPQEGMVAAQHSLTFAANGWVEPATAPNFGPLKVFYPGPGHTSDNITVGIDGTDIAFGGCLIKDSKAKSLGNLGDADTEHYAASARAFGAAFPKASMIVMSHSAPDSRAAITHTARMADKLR
In short: (§2)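 Enzyme (NDM-1 1 pM, IMP-1 2 pM, VIM-1 30 pM final) and 1.25 μM CCF2-FA incubated with inhibitor (20 to 0.00063 μM) for 2 h at 25° C in 100 mM KH2PO4 pH 7, 0.005% Tween-20, 10 μM ZnSO4. Fluorescence read at ex 405/em 460 nm; IC50 by 4-parameter fit.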

[4] = system: P. aeruginosa MB9799 (efflux-, IMP-1 plasmid); assay type: cell-based, Pseudomonas aeruginosa; conditions: efflux − (MB9799) strain; imipenem at 2 μg/mL; in the presence of a class A, C, D serine β-lactamase inhibitor closely related to relebactam
In short: as §1

[5] = system: Klebsiella pneumoniae expressing VIM-1 (IHMA599644); assay type: cell-based; conditions: with imipenem 1 μg/ml; 95% inhibition of bacterial growth
In short: (§3)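 Each strain, diluted 1:100 from saline suspension into 1.1× CAMHB, was combined with imipenem held at 1 μg/ml and graded inhibitor. Growth after 22–24 h at 35 °C was measured by absorbance, and the lowest concentration achieving 95% inhibition defined MITC95.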

[6] = system: Escherichia coli expressing NDM-1 (CLB30016); assay type: cell-based; conditions: with imipenem 1 μg/ml; 95% inhibition of bacterial growth
In short: as §3

[7] = system: Serratia marcescens expressing IMP-1 (CL5741); assay type: cell-based; conditions: with imipenem 1 μg/ml; 95% inhibition of bacterial growth
In short: as §3

[8] = target: IMP-1 (Serratia marcescens, UniProt P52699); assay: biochemical; conditions: CCF2-FA fluorescence assay, 2 hours at 25° C.; read-out: IMP1 IC50
IMP-1, sequence (P52699 whole entry, looked up, species assumed): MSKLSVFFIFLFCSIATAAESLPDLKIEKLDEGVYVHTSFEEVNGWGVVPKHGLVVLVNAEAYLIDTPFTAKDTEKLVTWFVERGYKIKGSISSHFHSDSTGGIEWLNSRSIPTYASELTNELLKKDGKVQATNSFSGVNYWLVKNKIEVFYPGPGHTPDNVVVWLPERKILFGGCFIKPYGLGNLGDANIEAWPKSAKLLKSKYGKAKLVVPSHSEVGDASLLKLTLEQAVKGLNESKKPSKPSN
In short: as §2

[9] = target: VIM-1 (Pseudomonas aeruginosa (strain ATCC 15692 / DSM 22644 / CIP 104116 / JCM 14847 / LMG 12228 / 1C / PRS 101 / PAO1), UniProt A0A0F7KYQ8); assay: biochemical; conditions: CCF2-FA fluorescence assay, 2 hours at 25° C.; read-out: VIM1 IC50
In short: as §2

SMILES | IC50 [1] | MB9798 MITC95 P. aeruginosa uM Efflux WT [2] | Efflux ratio [2] | IC50 [3] | MB9799 MITC95 P. aeruginosa uM Efflux Mutant [4] | IHMA599644 K. pneumoniae MITC95 VIM [5] | CLB30016 E. coli MITC95 NDM [6] | CL5741 S. marcescens MITC95 IMP [7] | IC50 [8] | IC50 [9]
CNCC1CCN(c2ccc(S(=O)(=O)N[C@@H]3CCNC3)c(S(N)(=O)=O)c2-c2nnn[nH]2)CC1 [Example 74, 4-{4-[(methylamino)methyl]piperidin-1-yl}-N1-[(3R)-pyrrolidin-3-yl]-3-(1H-tetrazol-5-yl)benzene-1,2-disulfonamide] | 6.86 nM | 1.56 µM | 2.00 | 3 nM | 0.78 µM | 3.13 µM | 0.78 µM | 1.56 µM | 6.8 nM | 0.45 nM
NC[C@@H](O)CNS(=O)(=O)c1ccc(N2CCC(CO)CC2)c(-c2nnn[nH]2)c1S(N)(=O)=O [Example 42, (R)-N1-(3-amino-2-hydroxypropyl)-4-(4-(hydroxymethyl)piperidin-1-yl)-3-(1H-tetrazol-5-yl)benzene-1,2-disulfonamide] | 0.71 nM | 1.56 µM | 1.00 | 0.45 nM | 1.56 µM | 6.25 µM | 3.13 µM | 3.13 µM | 0.47 nM | 0.16 nM
NC[C@@H](O)CNS(=O)(=O)c1ccc(N2CC[C@@H](N)C2)c(-c2nn[nH]n2)c1S(N)(=O)=O [Example 125, N1-((R)-3-amino-2-hydroxypropyl)-4-((R)-3-aminopyrrolidin-1-yl)-3-(2H-tetrazol-5-yl)benzene-1,2-disulfonamide] | 53.9 nM | 6.25 µM | 2.00 | 88.1 nM | 3.13 µM | 1.56 µM | 0.78 µM | 3.13 µM | 61.4 nM | 10.9 nM
NCCNS(=O)(=O)c1ccc(N2CCN(CCO)CC2)c(-c2nnn[nH]2)c1S(N)(=O)=O [Example 48, N1-(2-aminoethyl)-4-(4-(2-hydroxyethyl)piper-azin-1-yl)-3-(1H-tetrazol-5-yl)benzene-1,2-disulfonamide] | 15 nM | 1.56 µM | 4.00 | 1.52 nM | 0.39 µM | 0.39 µM | 0.05 µM | 0.05 µM | 5.59 nM | 7.23 nM
NS(=O)(=O)c1c(S(=O)(=O)N[C@@H]2CCNC2)ccc(N2CCCNC2=O)c1-c1nn[nH]n1 [Example 153, (R)-4-(2-oxotetrahydropyrimidin-1(2H)-yl)-N1-(pyrrolidin-3-yl)-3-(2H-tetrazol-5-yl)benzene-1,2-disulfonamide] | 1.1 nM | 3.13 µM | 2.00 | 0.21 nM | 1.56 µM | 3.13 µM | 0.78 µM | 1.56 µM | 7.23 nM | 0.2 nM
NC[C@@H](O)CNS(=O)(=O)c1ccc(N2CC[C@H](CN)[C@H](O)C2)c(-c2nn[nH]n2)c1S(N)(=O)=O [Example 9, N^1—((R)-3-amino-2-hydroxypropyl)-4-(cis-4-(aminomethyl)-3-hydroxypiperidin-1-yl)-3-(2H-tetrazol-5-yl)benzene-1,2-disulfonamide] | 6.41 nM | 1.56 µM | 2.00 | 3.46 nM | 0.78 µM | 1.56 µM | 0.39 µM | 0.78 µM | 15.5 nM | 0.26 nM
NC[C@@H](O)CNS(=O)(=O)c1ccc(N2CCC3(CC2)CC3N)c(-c2nn[nH]n2)c1S(N)(=O)=O (stereo partly shown) [Example 12] | 17.6 nM | 1.56 µM | 2.00 | 1.51 nM | 0.78 µM | 1.56 µM | 0.78 µM | 1.56 µM | 4.08 nM | 1.48 nM
NC[C@H]1CCCN(c2ccc(S(=O)(=O)N[C@@H]3CCNC3)c(S(N)(=O)=O)c2-c2nnn[nH]2)C1 [Example 82, 4-[(3R)-3-(aminomethyl)piperidin-1-yl]-N1-[(3R)-pyrrolidin-3-yl]-3-(1H-tetrazol-5-yl)benzene-1,2-disulfonamide] | 9.33 nM | 6.25 µM | 2.00 | 42.9 nM | 3.13 µM | 0.78 µM | 0.78 µM | 0.78 µM | 45.6 nM | 0.9 nM
NS(=O)(=O)c1c(S(=O)(=O)N[C@@H]2CCNC2)ccc(N2CCNCC2)c1-c1nnn[nH]1 [Example 79, 4-piperazin-1-yl-N1-[(3R)-pyrrolidin-3-yl]-3-(1H-tetrazol-5-yl)benzene-1,2-disulfonamide] | 36.4 nM | 3.13 µM | 2.00 | 9.35 nM | 1.56 µM | 3.13 µM | 0.39 µM | 0.78 µM | 26.6 nM | 8.6 nM
NS(=O)(=O)c1c(S(=O)(=O)N[C@@H]2CCNC2)ccc(N2CCOC(CO)C2)c1-c1nnn[nH]1 (stereo partly drawn) [Example 103, 4-[2-(hydroxymethyl)morpholin-4-yl]-N1-[(3R)-pyrrolidin-3-yl]-3-(1H-tetrazol-5-yl)benzene-1,2-disulfonamide] | 0.59 nM | 3.13 µM | 2.00 | 0.68 nM | 1.56 µM | 6.25 µM | 3.13 µM | 3.13 µM | 3.46 nM | 0.42 nM
NC[C@@H](O)CNS(=O)(=O)c1ccc(N2CC[C@@H](N)[C@H](F)C2)c(-c2nn[nH]n2)c1S(N)(=O)=O [Example 2] | 4.04 nM | 0.78 µM | 1.00 | 6.51 nM | 0.78 µM | 0.78 µM | 0.20 µM | 0.78 µM | 3.37 nM | 0.17 nM
NC[C@@H](O)CNS(=O)(=O)c1ccc(N2CCC(CCn3cccn3)CC2)c(-c2nn[nH]n2)c1S(N)(=O)=O [Example 27, (R)-4-(4-(2-(1H-pyrazol-1-yl)ethyl)piperidin-1-yl)-N^1-(3-amino-2-hydroxypropyl)-3-(2H-tetrazol-5-yl)benzene-1,2-disulfonamide] | 0.18 nM | 25.00 µM | 15.99 | 0.07 nM | 1.56 µM | 6.25 µM | 3.13 µM | 3.13 µM | 0.05 nM | 0.06 nM
NS(=O)(=O)c1c(S(=O)(=O)C2CNC2)ccc(N2CC[C@H](CO)[C@H](F)C2)c1-c1nnn[nH]1 [Example 61, 6-(azetidin-3-ylsulfonyl)-3-[(3S,4R)-3-fluoro-4-(hydroxymethyl)piperidin-1-yl]-2-(1H-tetrazol-5-yl)benzenesulfonamide] | 2.12 nM | 6.25 µM | 4.00 | 0.9 nM | 1.56 µM | 6.25 µM | 1.56 µM | 3.13 µM | 1.28 nM | 0.44 nM
